Experimental data as given in US10562939B2, “Method for significantly increasing lentiviral production” (priority 2016, dated 2020).

Legend:
[1] = test system: HIV-1 virion production in 293A cells; test: Virus-like particle (VLP) detection, 293A cells transfected with pNL4.3luc, CA Western blot; details: 20-40 micromolar, 48 hours, FIG. 4C
[2] = molecular target: T1, interaction between HIV-1 MA and arginyl-tRNA synthetase (RRS) (Homo sapiens, UniProt P54136); test: Co-immunoprecipitation of RRS with HIV-1 MA (control); assay type: binding
T1 construct: endogenous in cells; host or cells: 293A-MA-FH cells (RRS endogenous; MA-flag stably expressed)
T1 sequence (P54136 1-660): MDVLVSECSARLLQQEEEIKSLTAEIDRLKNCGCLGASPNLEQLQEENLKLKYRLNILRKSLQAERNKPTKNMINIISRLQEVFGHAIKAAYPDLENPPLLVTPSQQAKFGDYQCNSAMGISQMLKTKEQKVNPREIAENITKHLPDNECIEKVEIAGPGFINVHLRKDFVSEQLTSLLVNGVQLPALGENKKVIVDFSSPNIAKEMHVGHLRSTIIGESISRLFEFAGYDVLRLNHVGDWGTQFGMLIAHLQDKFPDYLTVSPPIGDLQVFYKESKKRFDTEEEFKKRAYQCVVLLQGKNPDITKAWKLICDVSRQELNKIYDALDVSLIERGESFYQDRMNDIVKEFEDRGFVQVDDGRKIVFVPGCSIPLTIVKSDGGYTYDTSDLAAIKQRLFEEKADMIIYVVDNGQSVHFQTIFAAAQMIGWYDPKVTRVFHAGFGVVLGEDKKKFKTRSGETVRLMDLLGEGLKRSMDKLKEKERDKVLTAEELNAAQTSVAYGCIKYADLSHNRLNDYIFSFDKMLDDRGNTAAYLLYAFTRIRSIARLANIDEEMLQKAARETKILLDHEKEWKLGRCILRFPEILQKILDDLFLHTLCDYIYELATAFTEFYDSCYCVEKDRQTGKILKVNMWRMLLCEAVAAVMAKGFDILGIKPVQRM
Method: As a control, the interaction between MA and another MA-interacting protein, arginyl-tRNA synthetase (RRS), a subunit of the aminoacyl-tRNA synthetase complex, was also evaluated. The coimmunoprecipitation of RRS and HIV-1 MA was not affected by addition of myristic acid (FIG. 1D).

[3] = molecular target: T2, human HO-2 (Homo sapiens, UniProt P30519); test: Fatty acid binding to HO-2 (crystal structure); details: FIG. 2E
T2 construct: The HO-2 gene fragment encoding amino acid residues 30-242 was cloned into a pET28a vector; made in house; host or cells: Escherichia coli BL21 (DE3) Star
T2 sequence (P30519 30-242): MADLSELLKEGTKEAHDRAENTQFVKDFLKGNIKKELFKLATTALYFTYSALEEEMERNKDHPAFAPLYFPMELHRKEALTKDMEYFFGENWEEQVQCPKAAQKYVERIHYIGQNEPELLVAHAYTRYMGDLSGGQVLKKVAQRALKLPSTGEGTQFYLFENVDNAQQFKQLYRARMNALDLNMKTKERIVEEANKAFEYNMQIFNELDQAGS
Method: To make the myristate complex, sodium myristate was dissolved in water at 50° C., and mixed with 20 mg/ml protein solution and incubated at 37° C. water bath for 30 min. The complex solution was then used to set up crystallization by mixing with (0.1 M Bis-Tris, (pH 5.5), 28% (w/v) polyethylene glycol 550 monomethyl ether, and 5 mM MgCl2). Crystals were directly flash-frozen in liquid nitrogen.
The laurate complex crystals were obtained by soaking apo crystals in well solution with 5 mM sodium laurate overnight and transferred to well solution with 35% (w/v) of precipitant before flash-frozen in liquid nitrogen. The crystals belong to space group P212121 and there are four protein molecules in the asymmetric unit.
X-ray diffraction data sets were collected at beamline 24-ID-E of the Advanced Photon Source (APS). The data were processed with the HKL package (Otwinowski and Minor, 1997). The structures were solved by molecular replacement using entry 2Q32 from the Protein Data Bank as the model. The myristate and laurate were manually added with Coot (Emsley and Cowtan, 2004) and refined with Phenix (Adams et al., 2002).
The crystal structure was also determined at 2.1 Å resolution of human HO-2 in complex with the C12 fatty acid laurate (FIG. 2E, Table 1B). The crystal was isomorphous to that of the myristate complex. […]

`C=CC1=C(C)C2=Cc3c(C=C)c(C)c4[n]3[Sn]([Cl])([Cl])[n]3c(c(C)c(CCC(=O)O)c3=CC3=NC(=C4)C(C)=C3CCC(=O)O)=CC1=N2` [SnPPIX, tin protoporphyrin IX dichloride] was tested, and the “virus yield (CA levels in virions)” value [1] was “dramatic increases in virus yield” and the “interaction between HIV-1 MA and RRS” value ([2]; increasing concentrations of SnPPIX, FIG. 4B) was “no effect”.
In the case of `CCCCCCCCCCCC(=O)O` [laurate], the “binding to HO-2” value [3] is reported as “could indeed bind”.
`CCCCCCCCCCCCCC(=O)O` [myristic acid] was tested, and the “coimmunoprecipitation of RRS and HIV-1 MA” value ([2]; myristic acid added to cell lysates, FIG. 1D) was “not affected”.
